{
  "source": "patent US10358500B2",
  "about": "“Humanized antibodies that bind LGR5” (Bionomics Inc., priority 2014, dated 2019)",
  "key": {"LGR5 [1]": {"test_system": "LGR5", "experiment": "LGR5 expression in treated CRC cell lines by flow cytometry", "assay_type": "cell-based", "conditions": "1 um, 72 hrs", "protocol": "A panel of CRC cell lines including DLD1, HCT116, LS174t, LoVo, SW48, SW480 and SW620 were treated with a PI3K/mTOR dual inhibitor (NVP) or 2 different cytotoxic agents including SN38 (active metabolite of Irinotecan) or 5FU (5 fluorouracil). Cells were treated with the above agents at 1 um and were harvested after 72 hrs. Cells were then stained with anti-LGR5 Mab conjugated to Alexa Fluor647 and the data were analyzed by flow cytometry using a FACScalibur."}, "PANC1 cancer stem cells": {"test_system": "PANC1 cancer stem cells", "experiment": "limiting dilution re-implant of treated PANC1 tumors", "assay_type": "in vivo, mice", "conditions": "gemcitabine alone", "excerpt": "Tumors cells from these treatment groups were harvested, dissociated, pooled and re-implanted in a limiting dilution assay (500, 1500, 4500 or 13500 cells/animal) into a new cohort of CB.17 SCID mice and allowed to grow with no treatment."}, "AsPC-1 cancer stem cells": {"test_system": "AsPC-1 cancer stem cells", "experiment": "limiting dilution experiment, AsPC-1 tumors", "assay_type": "in vivo, mice", "conditions": "day 40 post treatment, gemcitabine single agent"}, "LGR5 [2]": {"test_system": "LGR5", "experiment": "LGR5 expression in treated pancreatic cell lines by flow cytometry", "assay_type": "cell-based", "protocol": "In addition to CRC cell lines to further expand the above findings, expression of LGR5 was investigated in a series of pancreatic cell lines treated with relevant standard of care including nab-paclitaxel, gemcitabine and taxol and also small molecule inhibitors targeting most relevant pathways in pancreatic cancer such as inhibitors of PI3K, MEK and GSK3β. The pancreatic cell lines that were tested include: AsPc1, HPAFII, PANC1, BxPC3, CFPAC, PANC10.05, Capan2 and SW1990."}},
  "data": [
    {"smiles": "O=c1[nH]cc(F)c(=O)[nH]1", "note": "[5FU, 5 fluorouracil]", "values": [
      {"measurement": "LGR5 expression by flow cytometry", "setting": "LGR5 [1]; any of the CRC lines (DLD1, HCT116, LS174t, LoVo, SW48, SW480, SW620)", "value": "did not induce LGR5 expression"}
    ]},
    {"smiles": "CCc1c2c(nc3ccc(O)cc13)-c1cc3c(c(=O)n1C2)COC(=O)[C@]3(O)CC", "note": "[SN38]", "values": [
      {"measurement": "LGR5 expression by flow cytometry", "setting": "LGR5 [1]; HCT116, LS174t, SW48, SW480 and especially SW620 cells", "value": "promoted LGR5 expression"}
    ]},
    {"smiles": "Nc1ccn([C@@H]2O[C@H](CO)[C@@H](O)C2(F)F)c(=O)n1", "note": "[gemcitabine, reference compound]", "values": [
      {"measurement": "frequency of engraftment", "setting": "PANC1 cancer stem cells; PANC1, 4500 cells", "value": 40, "unit": "%"},
      {"measurement": "frequency of engraftment", "setting": "PANC1 cancer stem cells; PANC1, 13500 cells", "value": 100, "unit": "%"},
      {"measurement": "percentage of tumor bearing mice", "setting": "AsPC-1 cancer stem cells; AsPC-1, 4500 cells", "value": 40, "unit": "%"},
      {"measurement": "percentage of tumor bearing mice", "setting": "AsPC-1 cancer stem cells; AsPC-1, 13500 cells", "value": 80, "unit": "%"},
      {"measurement": "LGR5 expression by flow cytometry", "setting": "LGR5 [2]; PANC1", "value": "upregulates LGR5"}
    ]},
    {"smiles": "CC(=O)O[C@H]1C(=O)[C@@]2(C)[C@H]([C@H](OC(=O)c3ccccc3)[C@]3(O)C[C@H](OC(=O)[C@H](O)[C@@H](NC(=O)c4ccccc4)c4ccccc4)C(C)=C1C3(C)C)[C@]1(OC(C)=O)CO[C@@H]1C[C@@H]2O", "note": "[taxol]", "values": [
      {"measurement": "LGR5 expression by flow cytometry", "setting": "LGR5 [2]; HPAFII", "value": "increased LGR5 expression"}
    ]}
  ]
}
